According to patent US6979682B2, “Platelet-activating factor antagonist inhibition of angiogenesis and tumor growth induced by basic fibroblast” (Board of Supervisors of Louisiana State University and …, priority 2001, dated 2005):

What was measured:
[1] = test system: PAF binding sites (microsomal intracellular membranes; synaptosomal plasma membrane); conditions: Marcheselli and Bazan, 1994; cited from earlier work
201T cells = assay: in vitro cell growth assay, [3H]thymidine incorporation, 201T; type: cell-based, human
Procedure: The human prostatic carcinoma cell line PC-3 was grown in RPMI 1640 (Life Technologies, Grand Island, […].) supplemented with 10% fetal bovine serum (“FBS”, Life Technologies). The human cell line 201T was established from a poorly differentiated lung adenocarcinoma, as previously described using the method of J. M. Siegfried et al., “Secretion of autocrine growth factors by cultured lung tumors: effects on neoplastic lung epithelial cells,” Lung Cancer, vol. 4, pp. 205–209 (1988). See also J. P. Hamide et al., “Percutaneous implantation of non-small cell lung carcinoma: technique and observations,” Academ. Radiolo., vol. 4, pp. 629–633 (1997). The cell line was grown in a medium conditioned for 48 hours by the cell line A549 (ATCC CCL-185) containing 1% FBS (HyClone Laboratories, Logan, Utah) as previously described in J. M. Siegfried, “Culture of primary lung tumors using medium conditioned by a lung carcinoma cell line,” J. Cell. Biochem., vol. 41, pp. 91–95 (1988). This medium is referred to as CM+1% FBS.
PC-3 cells were exposed to 0, 0.1, 1, 2.5, 5, and 10 μM BN-50730 in RPMI medium supplemented with 10% FBS and [^3H]thymidine (Amersham Life Science, Arlington Heights, Ill.). 201T cells were exposed to 0, 0.1, 1, 2.5, 5, and 10 μM BN-50730 in CM+1% FBS supplemented with [^3H]thymidine. […] PC-3 and 201T cells were also exposed to 10 μM BN-50730 for 24, 48, 72 and 144 hours, and cell growth assessed as above.

[2] = visual observation of side effects in treated mice; type: in vivo, NCr athymic nude mice; conditions: mice treated at any dose
bFGF = assay: Western blot analysis of cell lysates for bFGF; type: cell-based, human; conditions: 5 μM, 18 hr prior to cell harvest
Procedure: HUVEC, PC-3, and 201T cells were grown to 75% confluency in the appropriate growth media. BN-50730 (5 μM) or vehicle (DMSO) was added to each cell line 18 hr prior to cell harvest. Cells were washed three times in phosphate-buffered saline (“PBS”) and scraped into Lemely buffer which lacked bromophenol blue and β-mercaptoethanol (0.1 M NaCl, 0.01M Tris-HCl (pH 7.6), 0.001 M EDTA, 1 μg/ml aprotinin, 100 μg/ml phenylmethylsulfonyl flouride, 2% SDS, and 10% glycerol). The cell suspension was boiled for 10 min and then immediately stored at −20° C. Protein levels were quantified using a Bio-Rad Protein Assay (Bio-Rad, Hercules, Calif.). Protein samples (20 μg) were separated through a 10–20% denaturing gradient acrylamide gel in Tris-glycine buffer and transferred to nitrocellulose (Bio-Rad) by electrophoretic blotting. […] Primary antibody was detected using alkaline phosphatase-conjugated goat anti-mouse IgG (Bio-Rad).
The methods were as in Example 1. Lysates were analyzed from HUVEC cells grown in the presence of DMSO (Lane 1) or 5 μM BN-50730 (Lane 2); PC-3 cells grown in the presence of DMSO (Lane 3) or 5 μM BN-50730 (Lane 4); and 201T cells grown in the presence of DMSO (Lane 5) or 5 μM BN-50730 (Lane 6). […]

## COc1ccc(NC(=O)N2CCc3c(sc4c3C(c3ccccc3Cl)=NCc3nnc(C)n3-4)C2)cc1 [BN-50730, tetrahydro-4,7,8,10 methyl-1 (chloro-2 phenyl)-6 (methoxy-4 phenyl-carbomoyl)-9 pyrido [4′,3′-4,5] thieno [3,2-f] triazolo-1,2,4[4,3-α]diazepine-1,4]
[1]
  displacement of PAF from microsomal membranes: displace PAF from microsomal membranes
  displacement of PAF from the synaptosomal, plasma membrane: not from the synaptosomal, plasma membrane
201T cells; 10 μM, six-day time course
  201T cell growth, time course: onset of growth inhibition: growth inhibition was manifested after 72 hr of exposure
201T cells; 10 μM, up to 144 hr, p=0.081, F-test
  201T cell growth, time course curves treated vs untreated: not statistically different
201T cells; 0.01-10 μM for four days, p<0.005 at or above 1.0 μM
  201T cell growth, concentration response: concentration-dependent reduction in growth
[2]
  side effects, visual observations: no apparent side effects
bFGF
  production of bFGF by 201T and PC-3 cells: does not inhibit the production of bFGF
